Assay results reported in US20240390372A1, “METHODS OF TREATING HAIR-LOSS DISORDERS WITH TYK2 INHIBITORS” (Bristol-Myers Squibb Company, priority 2021, published 2024).

Experiments:
[1] = tested on: ex vivo cultured hair follicles; assay: IFNγ secretion into the medium of ex vivo cultured hair follicles treated with IL-12+IL-18 (ELISA; prophylactic and therapeutic assays); assay type: cell-based, human; conditions: for IFNγ release into the culture medium: hair follicles treated with IL-12+IL-18, assay format not given
Description: (§1) Resident immune cell populations were assessed by quantification of CD3-positive cells and of CD56-positive cells. Gene expression of treated hair follicles was assessed using whole transcriptome analysis. IFNγ production was quantified by enzyme-linked immunosorbent assay (R&D systems). IL-12RB2-expressing cells were evaluated in healthy donors, acute AA patients, and chronic AA patients using immunohistomorphometry.
The effect of TYK2 inhibition on IFNγ production by hair follicles was also assessed. Specifically, two assays were performed to examine how TYK2 inhibition affects IFNγ secretion into the medium of ex vivo cultured hair follicles treated with IL-12+IL-18. In the prophylactic assay, hair follicles were pre-treated with the compound of Formula (II) or with tofacitinib, and then were cultured in the presence of IL-12+IL-18, after which IFNγ in the culture medium was measured. In the therapeutic assay, hair follicles were initially treated with IL-12±IL-18; then the compound of Formula (II) or tofacitinib was added and the culture continued, after which IFNγ in the culture medium was measured. The data in FIGS. 39 and 40 are based on the amount of IFNγ measured in pooled culture medium from n=8 hair follicles per group, obtained from 1-2 healthy donors. The graphs show mean±SEM from technical duplicates.

[2] = tested on: microdissected hair follicles from human scalp; assay: Therapeutic assay: compound added after IL-12+IL-18, T cell and NK cell expansion (CD3/CD56 immunostaining); assay type: cell-based; conditions: 300 nM added on day 2 of IL-12+IL-18 culture
Description: To assess whether TYK2 inhibition can block ongoing T cell and NK cell expansion, hair follicles were first incubated with vehicle, or with IL-12+IL-18, followed by the addition of the compound of Formula (II) or of tofacitinib. Specifically, 24-33 hair follicles, obtained from 3-4 independent healthy donors, were treated with vehicle, or with IL-12 (3 ng/ml) and IL-18 (20 ng/ml), for 5-6 days. On day 2 of culture, the compound of Formula (II) (300 nM) or tofacitinib (400 nM) was added. T cell expansion and NK cell expansion were assessed by immunostaining for CD3 (T cells) or CD56 (NK cells). The graphs in FIGS. 34-37 show mean±SEM, with p-values from the Dunn's multiple comparison test (*p<0.05; **p<0.01; ***p<0.001; ****p<0.0001). FIG. 38 provides images of staining for CD3 and CD56 in hair follicles (scale bar=50 μm).

[3] = tested on: microdissected hair follicles from human scalp; assay: Prophylactic assay: pre-treatment before IL-12+IL-18, CD3+ T cell and CD56+ NK cell quantification; assay type: cell-based; conditions: pre-treatment 300 nM, 5-6 days; IL-12+IL-18 added on day 2
Description: as §1
The effect of pre-treatment with the compound of Formula (II) on T cell and NK cell expansion following IL-12 and IL-18 stimulation was also examined. 22-40 hair follicles, obtained from 4-5 independent healthy donors, were incubated with vehicle, with the compound of Formula (II) (300 nM), or with tofacitinib (400 nM) for 5-6 days. On day 2 of culture, vehicle, or IL-12 (3 ng/ml) and IL-18 (20 ng/mL) were added. Resident immune cell populations were assessed by quantification of CD3-positive cells and of CD56-positive cells. FIGS. 23-27 provide the results. The graphs in FIGS. 23-26 show mean±SEM and results of the Dunn's multiple comparison test (*p<0.05; ***p<0.001). […] Pre-treatment with the compound of Formula (II) prevented an elevation of CD3+ T cell frequency and of CD56+ NK cell frequency, consistent with the results above.

[4] = tested on: microdissected hair follicles from human scalp; assay: Prophylactic assay: pre-treatment before IL-12+IL-18, MHC class I and II levels; assay type: cell-based
Description: To address the role of IL-12 in AA pathobiology and its potential as a therapeutic target, microdissected hair follicles from human scalp were cultured in the presence of IL-12 (3 ng/mL) and IL-18 (20 ng/mL) and in the presence or absence of a selective allosteric TYK2 inhibitor, the compound of Formula (II) (300 nM). IFNγ (75 UI/mL) was used as a positive control to induce immune privilege (IP) collapse, and tofacitinib was used as a positive control for blocking IFNγ signaling. Hair follicle immune privilege (HF-IP) was assessed by quantitative immunohistomorphometry of MHC class I, of MHC class II, and of MHC class chain-related protein A and MHC class chain-related protein B (MICA/B).
Hair follicles were pre-treated with the compound having the structure of Formula (II) (denoted “BMS” in the figures), followed by the addition of IL-12 and IL-18, in a prophylactic assay. Tofacitinib was used as a control, for comparison. For this assay, each group included 19-40 hair follicles, obtained from 3-5 independent healthy donors. The groups were treated as follows: with vehicle, with the compound of Formula (II) (300 nM), or with tofacitinib (400 nM) for 5-6 days; on day 2 of culture, vehicle, or IL-12 (3 ng/ml) and IL-18 (20 ng/mL) were added. Levels of MHC class I and of MHC class II were assessed as described above, and FIGS. 17-22 provide the results. The graphs in FIGS. 17-20 show mean±SEM and results of the Dunn's multiple comparison test (*p<0.05; **p<0.01; ****p<0.0001). FIGS. 21 and 22 show staining of MHC-I and MHC-II, respectively, in hair follicles (scale bar=100 μm).

[5] = tested on: microdissected hair follicles from human scalp; assay: Therapeutic assay: compound added after IL-12+IL-18-induced immune privilege collapse, MHC class I and II expression; assay type: cell-based
Excerpt: The above assays were adapted to investigate whether TYK2 inhibition can inhibit ongoing IL-12+IL-18-mediated hair follicle immune privilege collapse, and thus whether TYK2 inhibition is a viable therapeutic strategy for treating alopecia areata. In these assays, immune privilege collapse was first induced by treatment with IL-12+IL-18, followed by the addition of the compound of Formula (II).
To assess whether TYK2 inhibition could restore hair follicle immune privilege, 21-31 hair follicles, obtained from 3-4 independent healthy donors, were cultured with vehicle, or with IL-12 (3 ng/mL) and IL-18 (20 ng/ml), for 5-6 days. On day 2 of culture, the compound of Formula (II) (300 nM) or tofacitinib (400 nM) was added until day 5-6. MHC class I expression and MHC class II expression were measured, as was done previously. The graphs in FIGS. 28-31 show mean±SEM, with p-values from the Dunn's multiple comparison test (*p<0.05; **p<0.01; ***p<0.001; ****p<0.0001). FIGS. 32 and 33 show staining of MHC-I and MHC-II, respectively, in hair follicles (scale bar=100 μm). […] As discussed above, MHC class I and II are markers of immune privilege collapse.

[6] = 300 nM for 5-6 days, IL-12 3 ng/mL and IL-18 20 ng/mL added on day 2
[7] = 300 nM added on day 2 until day 5-6 of IL-12+IL-18 culture
[8] = 400 nM added on day 2 until day 5-6 of IL-12+IL-18 culture

SMILES	IFNγ release into the culture medium [1]	NK cell expansion induced by IL-12 and IL-18 (hair follicle epithelium and mesenchyme) [2]	T cell expansion induced by IL-12 and IL-18 (hair follicle epithelium and mesenchyme) [2]	elevation of CD3+ T cell frequency [3]	elevation of CD56+ NK cell frequency [3]	IL-12+IL-18-mediated upregulation of MHC class I in the outer root sheath [4, 6]	IL-12+IL-18-mediated upregulation of MHC class II in the outer root sheath [4, 6]	effect on MHC class I and II upregulation compared with tofacitinib ([4]; compound 300 nM versus tofacitinib 400 nM, prophylactic)	IL-12 and IL-18-induced immune privilege collapse of hair follicles ([4]; pre-treatment, 300 nM)	IL-12+IL-18-induced expression of MHC class I [5, 7]	IL-12+IL-18-induced expression of MHC class II [5, 7]	restoration of IFNγ secretion to baseline ([1]; therapeutic assay: IL-12+IL-18 first, then compound added)	IL-12+IL-18-induced expression of MHC class I [5, 8]	IL-12+IL-18-induced expression of MHC class II [5, 8]
[2H]C([2H])([2H])NC(=O)c1cnc(NC(=O)C2CC2)cc1Nc1cccc(-c2ncc(F)cn2)c1OC [compound of Formula (II)]	inhibiting IFNγ release	reversed	reversed	prevented	prevented	prevented	prevented	greater than the effect observed with tofacitinib	prevented	significantly reduced	significantly reduced			
C[C@@H]1CCN(C(=O)CC#N)C[C@@H]1N(C)c1ncnc2[nH]ccc12 [tofacitinib, reference compound]	did not decrease											such restoration was not observed	significantly reduced	significantly reduced
